Marks after values point to notes of the source that are not given here.
Legend:
female C57BL/6 mice = assay: Risedronate treatment of radiation-induced bone loss in mice, microCT (Example 4); type: in vivo; conditions: 2 Gy whole body X-rays
TRAP5b = assay: Serum TRAP5b ELISA, irradiated mice treated with risedronate (Example 4b); type: in vivo; conditions: 2 Gy irradiated mice, risedronate 30 μg/kg every other day, 7, 14 and 21 days
Description: (§1) Tissue collection: 12 individuals from each group were sacrificed at 1, 2, and 3 weeks following the initial radiation exposure. Each mouse weighed then anesthetized using isoflurane, and blood was collected for serum analysis by cardiac puncture and exsanguination followed by cervical dislocation to ensure death. Serum was isolated by centrifugation, flash frozen in liquid nitrogen, and stored at −80° C. The left and right hind limbs as well as the vertebral column were collected for analysis. Hind limbs were removed and disarticulated. Tibiae and femora were cleaned of soft tissue and fixed in a solution of 10% formalin. After 48 hours, the bones were placed in 70% ethanol. The vertebral column was frozen at −20° C. to ensure microcomputed tomography (microCT) analysis of the fifth lumbar vertebrae (L5).
(§2) Serum Chemistry: Serum samples were analyzed for circulating markers of bone formation and resorption. ELISA kits for osteocalcin (Biomedical Technologies, Inc., Stoughton, Mass.) and tartrate-resistant acid phosphatase (TRAP5b) (Immunodiagnostic Systems, Inc., Fountain Hills, Az.), respectively. The analyses were performed according to protocols provided by the manufacturers.

osteocalcin = assay: Serum osteocalcin ELISA, irradiated mice treated with risedronate (Example 4b); type: in vivo; conditions: 2 Gy irradiated mice; risedronate 30 μg/kg every other day
Description: as §1, §2

osteoclasts = assay: Histological analysis of osteoclast surface (TRAP staining), proximal tibia trabecular bone (Example 4c); type: in vivo, mice; conditions: one week after exposure, but not two and three weeks; 2 Gy; risedronate 30 micrograms/kg every other day; versus non-irradiated control
Description: Osteoclast Identification: Following tomographic analysis, the left tibiae were decalcified using a formic acid solution (Immunocal; Decal Chemical Corp., Talman, N.Y.) and embedded in a glycol methacrylate resin (ImmunoBed™; Polysciences, Wasrrington, Pa.). The samples were cut into sagittal sections with a thickness of 3 μm. A subset of each group (n=5-6) was selected for analysis. Each slide was stained with TRAP using a commercial kit (Sigma, St. Louis, Mo.) to identify osteoclasts and counterstained with hematoxylin, Radiographs assessed the earliest time point of complete decalcification. […] Osteoclast presence was determined by tartrate resistant acid phosphatase (TRAP) staining of the slides using a commercial kit (Sigma; St. Louis, Mo.) and then counterstaining with hematoxylin (Sigma).
Histomorphometric evaluation was performed from captured micrographs (200×) throughout the metaphysis, starting approximately 0.25 mm distal from the growth plate (in order to exclude the primary spongiosa) and extending a further 0.5 mm. Bone histomorphometric parameters for the proximal metaphysis of the tibia were measured as described in the report of the American Society of Bone and Mineral Research (ASBMR) Histomophometry Nomenclature Committee (22). Surface measurements were quantified relative to total bone surface (BS). […]

[1] = test system: female Sprague-Dawley rats; assay: Rat model, clinically-modeled radiation dose regimen with risedronate, tibia microCT (Example 5); type: in vivo; conditions: risedronate 0.1 mg/kg/week subcutaneously; for Conn. Dens. (connectivity density) / SMI (structural model index) / Tb. N. (trabecular number) / Tb. Sp. (trabecular spacing) / Tb. Th (trabecular thickness) / BV/TV (bone volume fraction): mean ± SEM
Description: The right hindlimb from twenty-one week old female Sprague-Dawley rats were irradiated using a clinical irradiator (linear accelerator; LINAC; Wake Forest University). The dose applied was 16 Gy given as 4 fractions of 4 Gy each. This dose is the equivalent in terms of biological impacts on the hip during the course of radiation therapy for cancer, as determined by radiation biophysicists. Irradiations (all four total) were provided over the course of two weeks. Animals either received no radiation, radiation only, or radiation+risedronate injection (0.1 mg/kg/week subcutaneously). Administration of risedronate was provided one day prior to the first irradiation, then three times per week until sacrifice.
Animals were sacrificed two and four weeks after exposure. Hindlimbs were removed, and the tibiae were examined via microCT for several parameters. Meanings of the following trabecular parameters as they relate with conditions of increased resorption or atrophy are provided in Example 3 Methods Section: BV/TV; connectivity density (Conn.Dens.); trabecular thickness (Tb.Th.); trabecular number (Tb.N); and trabecular spacing (Tb.S.) were again determined. All measurements were taken within a region extending 1 mm distal to the growth plate.

rats = conditions: 0.1 mg/kg/week administered subcutaneously; cited from earlier work
aged rats = aged rats (9 months then allowed to mature 60 days); 0.02 or 0.04 mg/kg/wk; cited from earlier work
OVX rat = conditions: OVX rats; administered orally; cited from earlier work
minipigs = conditions: 2.5 vs 0.5 mg/kg/day oral; cited from earlier work
[2] = realistic order stated in text; 1% assumed for dose conversion; cited from earlier work
female B6 mice = assay: High dose zoledronate against radiation-induced bone loss in mice, microCT (Example 6); type: in vivo; conditions: for radiation-induced bone loss: 12-week-old mice, 2 Gy whole body X-rays, single 10 mg/kg dose of zoledronate, microCT 2 weeks after irradiation, 10 mg/kg
Description: The antiresorptive bisphosphonate zoledronate was selected as representative of the class of antiresorptive agents and was tested, at high doses of 10 mg/kg, for its ability to prevent radiation-induced bone loss.
12-week-old female B6 mice were either 1) not irradiated and treated with a placebo injection, 2) irradiated with a 2 Gy whole body dose of X-rays and treated with a placebo injection, or 3) irradiated with a 2 Gy whole body dose of X-rays and treated with a single 10 mg/kg dose of […]. Bones were collected and examined by microCT 2 weeks after irradiation and zoledronate injection.

[3] = cited from earlier work
[4] = risedronate 30 μg/kg subcutaneous every other day
[5] = 2 Week Examination, 16 Gy (4 x 4 Gy)
[6] = 4 Week Examination, 16 Gy (4 x 4 Gy)

With `O=P(O)(O)C(O)(Cc1cccnc1)P(=O)(O)O` [risedronate] as the compound, how does the “radiation-induced bone loss at the 5th lumbar vertebra (FIG. 13)” value (female C57BL/6 mice; [4]) read?
The value was “prevents rapid radiation-induced bone loss”.

And the “radiation-induced bone loss at the distal femur (FIG. 12)” value (female C57BL/6 mice; [4])?
The value was “prevents rapid radiation-induced bone loss”.

What about the “radiation-induced bone loss (proximal tibia, distal femur and 5th lumbar vertebra)” value (female C57BL/6 mice; risedronate 30 μg/kg/injection subcutaneous every other day, 1, 2 and 3 weeks) of the same compound?
The value was “prevents radiation-induced bone loss”.

And the “serum TRAP5b levels (marker for osteoclast activity)” value (TRAP5b)?
Its value is “reduced at all time points”.

And the “serum TRAP5b levels (marker for osteoclast activity)” value (TRAP5b; listed as Risedronate)?
The value was “reduced TRAP5b levels at all time points”.

And the “serum osteocalcin levels (marker for bone formation)” value (osteocalcin)?
The value was “trended to decrease levels”.

And the “osteoclast surface, proximal tibia trabecular bone” value (osteoclasts)?
The value was “greater osteoclast surface”.

And the “Conn. Dens. (connectivity density)” value [1, 5]?
Its value is 95.4 ± 4.4^b l/mm^3.

What about the “SMI (structural model index)” value [1, 5] of the same compound?
Its value is 0.83 ± 0.07^e.

And the “Tb. N. (trabecular number)” value [1, 5]?
Its value is 4.02 ± 0.11^g.

What about the “Tb. Sp. (trabecular spacing)” value [1, 5] of the same compound?
The value was 216 ± 8^g μm.

And the “Tb. Th (trabecular thickness)” value [1, 5]?
Its value is 90.1 ± 1.4^b.

What about the “BV/TV (bone volume fraction)” value ([1]; 2 Week Examination, right hindlimb 16 Gy (4 fractions of 4 Gy), tibia microCT) of the same compound?
The value was 31.9 ± 0.79^e %.

And the “effect on radiation-induced trabecular deterioration relative with control” value ([1]; 2 weeks, rats, 16 Gy)?
Its value is “largely mitigated these changes”.

What about the “sparing effect on connectivity of the trabeculae compared with the differences after only receiving radiation” value ([1]; 2 weeks, rats) of the same compound?
The value was 12%.

What about the “BV/TV (bone volume fraction)” value [1, 6] of the same compound?
The value was 34.4 ± 1.2^b,^f %.

What about the “Conn. Dens. (connectivity density)” value [1, 6] of the same compound?
The value was 109.3 ± 4.6^e l/mm^3.

And the “SMI (structural model index)” value [1, 6]?
The value was 0.68 ± 0.12^a,^f.

And the “Tb. N. (trabecular number)” value [1, 6]?
Its value is 4.37 ± 0.09^f.

What about the “Tb. Sp. (trabecular spacing)” value [1, 6] of the same compound?
Its value is 193 ± 5^f μm.

What about the “Tb. Th (trabecular thickness)” value [1, 6] of the same compound?
Its value is 90.9 ± 1.1^c,^h.

What about the “evidence of trabecular deterioration via microCT relative with control” value ([1]; Week 4, rats, 16 Gy) of the same compound?
The value was “has disappeared by Week 4”.

And the “bone volume and fraction in GIO” value (rats)?
Its value is “increased bone volume and fraction by reducing turnover”.

And the “histomorphometric changes in the tibial diaphysis” value (aged rats)?
Its value is “no histomorphometric changes”.

What about the “oral doses at which improvement in bone mineral density and preservation of microarchitecture generally occurred” value (OVX rat) of the same compound?
Its value is “greater than 0.5 mg/kg/day”.

What about the “preserving architecture, comparison of oral doses” value (minipigs) of the same compound?
The value was “more pronounced in animal models (minipigs) using 2.5 mg/kg/day than 0.5 mg/kg/day”.

And the oral bioavailability [2]?
Its oral bioavailability is 0.5-0.7%.

Which results are given for `O=P(O)(O)C(O)(Cn1ccnc1)P(=O)(O)O` [zoledronate]?
radiation-induced bone loss (female B6 mice): prevents radiation-induced bone loss; radiation-induced bone loss (female B6 mice; listed as Zoledronate): prevented the bone loss; bone mass versus untreated, non-irradiated levels (female B6 mice; growing mice, 2 Gy, single 10 mg/kg zoledronate, 2 weeks): increased to greater than untreated, non-irradiated levels

Which “effect of low doses on markers for bone formation” value ([3]; 0.01 mg/kg and 0.03 mg/kg) does the source give for “Denosumab: fully human anti-RANKL antibody that binds RANK ligand and blocks its binding to RANK, formerly AMG162 (Amgen)” here?
The value was “reduced markers for bone formation, but for only temporary periods”.

And the duration of efficacy ([3]; 0.3, 1.0 and 3.0 mg/kg)?
Its duration of efficacy is greater than 30 days.

And the “performance compared with standard 90 mg dose of pamidronate” value ([3]; 0.3, 1.0 and 3.0 mg/kg)?
Its value is “performed similarly”.
